Experimental data: patent US11584744B2 (UNIVERSITY OF WASHINGTON, priority 2017, dated 2023)
≈ marks a conversion by molar mass, not a printed value. Read-outs that look alike come from different tables or passages of the source.

Assays:
MetRS (T. brucei) = target: T1, MetRS (T. brucei) (Trypanosoma brucei brucei, UniProt Q38C91); assay: MetRS (T. brucei) enzyme inhibition; type: biochemical
T1 sequence (Q38C91 1-773): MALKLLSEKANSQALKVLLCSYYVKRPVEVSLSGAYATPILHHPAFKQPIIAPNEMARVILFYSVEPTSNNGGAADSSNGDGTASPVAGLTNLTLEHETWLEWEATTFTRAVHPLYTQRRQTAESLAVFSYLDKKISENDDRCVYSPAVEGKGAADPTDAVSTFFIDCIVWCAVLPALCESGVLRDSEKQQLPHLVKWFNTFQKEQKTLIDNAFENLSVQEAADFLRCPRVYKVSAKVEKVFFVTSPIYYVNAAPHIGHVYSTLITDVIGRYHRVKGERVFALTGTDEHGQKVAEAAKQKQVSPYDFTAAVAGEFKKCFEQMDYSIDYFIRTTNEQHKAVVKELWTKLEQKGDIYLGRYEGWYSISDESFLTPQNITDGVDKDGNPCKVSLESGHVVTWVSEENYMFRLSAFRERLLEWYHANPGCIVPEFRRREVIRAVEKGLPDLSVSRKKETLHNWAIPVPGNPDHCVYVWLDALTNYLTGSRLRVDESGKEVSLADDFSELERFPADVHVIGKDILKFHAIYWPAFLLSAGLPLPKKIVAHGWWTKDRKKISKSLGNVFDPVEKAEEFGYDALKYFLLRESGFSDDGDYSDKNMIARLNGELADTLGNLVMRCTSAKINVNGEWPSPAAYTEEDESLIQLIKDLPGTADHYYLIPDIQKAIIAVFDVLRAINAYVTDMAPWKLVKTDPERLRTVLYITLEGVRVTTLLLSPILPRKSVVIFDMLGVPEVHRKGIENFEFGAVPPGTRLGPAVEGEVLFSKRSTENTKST

MetRS (C. parvum) = MetRS (C. parvum) (Cryptosporidium parvum, UniProt Q5CVN0); assay: MetRS (C. parvum) enzyme inhibition; type: biochemical; conditions: read-out: (C) MetRS (C. parvum) IC50
Sequence of MetRS (C. parvum) (Q5CVN0 entry or part of it): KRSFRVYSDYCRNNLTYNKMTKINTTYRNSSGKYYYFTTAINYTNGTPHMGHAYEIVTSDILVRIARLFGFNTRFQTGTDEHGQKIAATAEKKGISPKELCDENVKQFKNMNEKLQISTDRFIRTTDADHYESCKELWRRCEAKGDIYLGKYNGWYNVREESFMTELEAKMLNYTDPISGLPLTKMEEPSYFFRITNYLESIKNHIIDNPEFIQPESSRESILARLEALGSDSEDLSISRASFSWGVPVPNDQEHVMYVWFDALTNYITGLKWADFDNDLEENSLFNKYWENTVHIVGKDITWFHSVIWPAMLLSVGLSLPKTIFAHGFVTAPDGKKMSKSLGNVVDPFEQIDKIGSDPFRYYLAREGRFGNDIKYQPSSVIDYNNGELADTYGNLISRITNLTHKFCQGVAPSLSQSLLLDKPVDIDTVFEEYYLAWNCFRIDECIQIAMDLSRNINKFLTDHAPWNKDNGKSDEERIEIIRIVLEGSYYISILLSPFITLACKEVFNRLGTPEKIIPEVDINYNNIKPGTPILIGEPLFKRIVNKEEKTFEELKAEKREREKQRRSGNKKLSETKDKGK

[1] = tested on: S. aureus MSSA (ATCC 29213); assay: MIC susceptibility testing; type: cell-based, Staphylococcus aureus; conditions: S. aureus ATCC 29213; for MIC: Staphylococcus aureus, read-out: (F) S. aureus (ATCC 29213) MIC
From the text: Media and culture conditions. Mueller Hinton broth (MHB), cation adjusted Mueller Hinton broth (CA-MHB), and Brain Heart Infusion broth (BHI) were purchased from Becton Dickinson (Franklin Lakes, N.J.). Tryptic soy agar (TSA) plates, TSA with 5% sheep blood plates, and CA-MHB with 3% laked horse blood were purchased from Remel (San Diego, Calif.). MHB was used to assay all Staphylococcus aureus strains. CA-MHB was used for Staphylococcus epidermidis, Enterococcus faecalis, Enterococcus faecium, Escherichia coli, and Pseudomonas aeruginosa. CA-MHB supplemented with 3% laked horse blood was used for Streptococcus pneumoniae and Streptococcus pyogenes. Staphylococcus, Enterococcus, Escherichia, and Pseudomonas strains were cultured at 37° C. with ambient air. Streptococcus strains were cultured in 37° C. with 5% CO2. Separate conditions for radiolabeled precursor uptake assays are described below.
Susceptibility testing: Minimum inhibitory concentration (MIC) determinations were performed in triplicate in 96-well round bottom microtiter plates (Corning, Corning N.Y.) as described by the Clinical and Laboratory Standards Institute (CLSI). Serial two-fold dilutions of compounds were added to plates in 50 μL volumes. An additional 50 μL of media containing bacterial cells (1×10^6 CFUs/mL) was then added to each well. Maximum DMSO concentrations were 0.5%. Plates were incubated at 37° C. for at least 18 h before reading the susceptibility result by optical absorbance (OD600) using a BioTek ELx800. The lowest concentration causing ≥90% growth inhibition compared to the untreated control was recorded as the MIC (and also corresponded to the visual MIC). MICs were measured at least twice and the higher value (if different) was recorded herein.

T. cruzi = T. cruzi growth inhibition; type: cell-based, Trypanosoma cruzi; conditions: read-out: (E) T. cruzi EC50
T. brucei = T. brucei growth inhibition; type: cell-based, Trypanosoma brucei; conditions: Trypanosoma brucei; read-out: (D) T. brucei EC50
C. parvum = C. parvum growth inhibition; type: cell-based, Cryptosporidium parvum; conditions: read-out: (J) C. parvum EC50

SMILES | IC50 (MetRS (T. brucei)) | IC50 (MetRS (C. parvum)) | MIC [1] | EC50 (T. cruzi; Trypanosoma cruzi) | EC50 (T. brucei) | (F) S. aureus (ATCC 29213) MIC [1] | EC50 (C. parvum; Cryptosporidium parvum) | EC50 (C. parvum) | EC50 (T. cruzi)
O=c1n(Cc2nc3ccc(F)nc3[nH]2)cc(Cc2ccc(Cl)cc2Cl)n1C1CCCC1 [Compound 2081, 3-cyclopentyl-4-[(2,4-dichlorophenyl)methyl]-1-({5-fluoro-1H-imidazo[4,5-b]pyridin-2-yl}methyl)-2,3-dihydro-1H-imidazol-2-one] | < 40 nM | < 40 nM | 1.33 µg/mL (≈ 2.89 µM) | 438 nM |  |  |  |  | 
CC(C)(C)n1c(Cc2ccc(Cl)cc2Cl)cn(Cc2nc3ccc(F)nc3[nH]2)c1=O [Compound 2084, 3-tert-butyl-4-[(2,4-dichlorophenyl)methyl]-1-({5-fluoro-1H-imidazo[4,5-b]pyridin-2-yl}methyl)-2,3-dihydro-1H-imidazol-2-one] | < 40 nM | < 40 nM | 2.04 µg/mL (≈ 4.55 µM) | 608 nM |  |  |  |  | 
CCn1c(Cc2ccc(Cl)cc2Cl)cn(Cc2nc3ccc(C)nc3[nH]2)c1=O [Compound 2092, 4-[(2,4-dichlorophenyl)methyl]-3-ethyl-1-({5-methyl-1H-imidazo[4,5-b]pyridin-2-yl}methyl)-2,3-dihydro-1H-imidazol-2-one] | < 40 nM | 47.5 nM | > 2.5 µg/mL | 502 nM |  |  |  |  | 
COc1ccc(-c2cnc(NC(C)=O)c3nc(Cc4nc5nc(Cl)ccc5[nH]4)cn23)c(Cl)c1 [Compound 2186, N-[2-({5-chloro-1H-imidazo[4,5-b]pyridin-2-yl}methyl)-5-(2-chloro-4-methoxyphenyl)imidazo[1,2-a]pyrazin-8-yl]acetamide] | 59 nM | 49.2 nM | 3.8 µg/mL (≈ 7.88 µM) | 360 nM | 25 nM | 3.21 µg/mL |  |  | 
O=c1[nH]c(C(O)c2ccc(Cl)cc2Cl)cn1Cc1nc2nc(Cl)ccc2[nH]1 (stereo not shown) [Compound 2202, 1-({5-chloro-1H-imidazo[4,5-b]pyridin-2-yl}methyl)-4-[(2,4-dichlorophenyl)(hydroxy)methyl]-2,3-dihydro-1H-imidazol-2-one] | 55 nM | 213 nM | > 10 µg/mL | 2710 nM | 45.3 nM | 13.2 µg/mL |  |  | 
CCn1c(Cc2ccc(Cl)cc2Cl)cn(Cc2nc3c(ccc(Cl)[n+]3[O-])[nH]2)c1=O [Compound 2235, 1-({5-chloro-4-oxo-1H-4λ^5-imidazo[4,5-b]pyridin-2-yl}methyl)-4-[(2,4-dichlorophenyl)methyl]-3-ethyl-2,3-dihydro-1H-imidazol-2-one] |  | > 1000 nM |  |  | 1050 nM |  | > 2000 nM |  | 
COc1ccc(-c2cccn3c(=S)n(Cc4nc5nc(Cl)ccc5[nH]4)cc23)c(Cl)c1 [Compound 2243, 2-({5-chloro-1H-imidazo[4,5-b]pyridin-2-yl}methyl)-8-(2-chloro-4-methoxyphenyl)-2H,3H-imidazo[1,5-a]pyridine-3-thione] |  |  |  | 96.9 nM |  |  | 753 nM | 1440 nM | 172 nM
COc1ccc(Cc2cn(Cc3nc4c(F)c(F)ccc4[nH]3)c(=O)n2CC(F)F)c(Cl)c1 [Compound 2261, 4-[(2-chloro-4-methoxyphenyl)methyl]-1-[(6,7-difluoro-1H-1,3-benzodiazol-2-yl)methyl]-3-(2,2-difluoroethyl)-2,3-dihydro-1H-imidazol-2-one] |  |  |  | 214 nM |  |  | 340 nM | 561 nM | 
OCCOc1cc(-c2cccc3nc(Cc4nc5nc(Cl)ccc5[nH]4)cn23)c(Cl)cc1Cl [Compound 2270, 2-{2,4-dichloro-5-[2-({5-chloro-1H-imidazo[4,5-b]pyridin-2-yl}methyl)imidazo[1,2-a]pyridin-5-yl]phenoxy}ethan-1-ol] |  |  |  | 706 nM | 43.2 nM |  | > 2000 nM |  | 
Clc1ccc2[nH]c(Cc3cn4c(-c5cc(OCCOC6CCCCO6)c(Cl)cc5Cl)cccc4n3)nc2n1 (stereo not shown) [Compound 2271, 2-({5-chloro-1H-imidazo[4,5-b]pyridin-2-yl}methyl)-5-{2,4-dichloro-5-[2-(oxan-2-yloxy)ethoxy]phenyl}-imidazo[1,2-a]pyridine] |  |  |  | 494 nM | 53.9 nM |  | > 2000 nM |  | 
